Measurements as given in the supplement of paper PMC12669032.

How the values were obtained:
Test in all cases: growth AUC relative to DMSO control (fraction); higher = more growth (less inhibition)
Conditions in all cases: 24 h
[1] = tested on: Parabacteroides distasonis
Method: (§1)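 Validation screen: 11 independently purchased pesticides tested on 8 gut bacterial strains at 2.5–320 µM in mGAM, anaerobic, 37 °C, 24 h. Growth AUC normalised to DMSO controls, mean of 3 independent experiments.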

[2] = tested on: Escherichia coli IAI1
Method: as §1

[3] = tested on: Roseburia intestinalis
Method: as §1

[4] = tested on: Bacteroides uniformis
Method: as §1

[5] = tested on: Lactobacillus gasseri
Method: as §1

[6] = tested on: Clostridium difficile
Method: as §1

[7] = tested on: Eubacterium rectale
Method: as §1

[8] = tested on: Streptococcus salivarius
Method: as §1

N#Cc1c(Cl)c(Cl)c(Cl)c(C#N)c1Cl [CHLOROTHALONIL]
growth AUC
Conditions | [1] | [2] | [3] | [4] | [5] | [6] | [7] | [8]
2.5 µM | 1.13 | 1.02 | 0.978 | 1.04 | 1.02 | 1.03 | 1.07 | 1.08
5 µM | 1.04 | 0.986 | 1.01 | 1.01 | 1.03 | 1.01 | 0.894 | 0.963
10 µM | 0.921 | 1.01 | 0.91 | 0.981 | 1 | 0.963 | 0.836 | 1
20 µM | 0.961 | 0.974 | 0.713 | 0.889 | 0.925 | 0.993 | 0.593 | 0.907

CC[C@H](C)[C@H]1O[C@]2(C=C[C@@H]1C)C[C@@H]1C[C@@H](C/C=C(\C)[C@@H](O[C@H]3C[C@H](OC)[C@@H](O[C@H]4C[C@H](OC)[C@@H](NC)[C@H](C)O4)[C@H](C)O3)[C@@H](C)/C=C/C=C3\CO[C@@H]4[C@H](O)C(C)=C[C@@H](C(=O)O1)[C@]34O)O2.O=C(O)c1ccccc1 [EMAMECTIN BENZOATE]
growth AUC
Conditions | [1] | [2] | [3] | [4] | [5] | [6] | [7] | [8]
2.5 µM | 1.09 | 1.06 | 0.859 | 1.03 | 1.01 | 1.01 | 1.03 | 1.08
5 µM | 0.898 | 1.02 | 0.396 | 1.04 | 1.01 | 0.987 | 1.04 | 1
10 µM | 0.487 | 1 | 0.0369 | 0.992 | 0.949 | 0.916 | 0.693 | 1.02
20 µM | 0.0163 | 0.979 | 0.0348 | 1.03 | 0.822 | 0.967 | 0.0185 | 0.938
40 µM | 0.00619 | 1.05 | 0.0127 | 0.839 | 0.848 | 0.654 | 0.0159 | 1.14
80 µM | 0.0234 | 1.04 | 0.00913 | 0.669 | 1.02 | 0.0139 | 0.0289 | 1.16
160 µM | 0.0419 | 1.06 | 0.0441 | 0.732 | 1.07 | 0.0469 | 0.126 | 1.27

CCCN(CCOc1c(Cl)cc(Cl)cc1Cl)C(=O)n1ccnc1 [PROCHLORAZ]
growth AUC
Conditions | [1] | [2] | [3] | [4] | [5] | [6] | [7] | [8]
2.5 µM | 0.957 | 1 | 0.993 | 1 | 1.01 | 0.989 | 0.748 | 1.01
5 µM | 0.858 | 0.987 | 1.02 | 0.994 | 1 | 0.977 | 0.524 | 0.995
10 µM | 0.68 | 0.966 | 0.949 | 0.938 | 0.944 | 0.956 | 0.397 | 0.973
20 µM | 0.608 | 0.956 | 0.718 | 0.92 | 0.931 | 1.01 | 0.125 | 0.945
40 µM | 0.363 | 0.988 | 0.594 | 0.886 | 0.957 | 0.875 | 0.0225 | 0.984
80 µM | 0.0195 | 0.989 | 0.0292 | 0.812 | 0.903 | 0.913 | 0.0308 | 0.962
160 µM | 0.0246 | 0.983 | 0.0197 | 0.767 | 0.836 | 0.391 | 0.0176 | 0.935
